Drawing on patent US8084621B2, “3-Pyrrolo[b]cyclohexylene-2-dihydroindolinone derivatives and uses thereof” (Jiangsu Simcere Pharmaceutical R&D Co. Ltd., priority 2006, dated 2011), this text covers inhibition for nine molecules.

Structures are written as SMILES.

T1 sequence (P10721 26-976): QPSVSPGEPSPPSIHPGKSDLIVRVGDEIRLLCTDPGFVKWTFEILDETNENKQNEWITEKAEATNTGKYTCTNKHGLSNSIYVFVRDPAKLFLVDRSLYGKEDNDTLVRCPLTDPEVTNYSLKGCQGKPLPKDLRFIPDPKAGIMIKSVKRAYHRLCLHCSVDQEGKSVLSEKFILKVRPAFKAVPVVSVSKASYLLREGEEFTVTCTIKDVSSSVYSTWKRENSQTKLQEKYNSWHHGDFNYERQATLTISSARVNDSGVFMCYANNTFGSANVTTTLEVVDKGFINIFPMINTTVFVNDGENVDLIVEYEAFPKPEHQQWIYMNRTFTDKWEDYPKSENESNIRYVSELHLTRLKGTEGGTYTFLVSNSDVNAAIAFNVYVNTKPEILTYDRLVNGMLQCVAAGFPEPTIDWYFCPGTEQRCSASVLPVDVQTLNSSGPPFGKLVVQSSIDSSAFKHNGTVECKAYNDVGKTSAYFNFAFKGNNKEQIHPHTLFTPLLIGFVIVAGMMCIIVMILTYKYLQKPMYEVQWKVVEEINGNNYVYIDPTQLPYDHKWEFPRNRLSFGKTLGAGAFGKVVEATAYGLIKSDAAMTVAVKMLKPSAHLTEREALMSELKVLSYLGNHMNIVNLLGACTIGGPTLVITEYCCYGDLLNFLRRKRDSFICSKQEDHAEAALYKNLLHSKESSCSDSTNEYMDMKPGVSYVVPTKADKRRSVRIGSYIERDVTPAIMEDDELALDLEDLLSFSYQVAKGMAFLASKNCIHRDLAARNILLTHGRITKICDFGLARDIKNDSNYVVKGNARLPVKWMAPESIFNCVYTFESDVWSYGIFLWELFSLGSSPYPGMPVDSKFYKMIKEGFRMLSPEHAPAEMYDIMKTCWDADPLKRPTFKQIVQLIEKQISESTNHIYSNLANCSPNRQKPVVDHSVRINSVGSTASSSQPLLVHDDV

The test has as its target T1, c-Kit (Homo sapiens, UniProt P10721).
T1 construct: purchased Cell Signaling Technology CO
In words: Protein kinase activity by ELISA in vitro, c-Kit. Particulars: concentration of 10^−7 mol/L; read-out: kinase inhibition ratio, c-Kit. It is filed as biochemical.
Excerpt: (§1) An ELISA (Enzyme-Linked Immunosorbent Sandwich Assay) procedure may be used to detect and measure the level of protein tyrosine kinase activity. Tyrosine kinases such as VEGFR-2, PDGFR-β and c-Kit etc. catalyze the phosphorylation reaction of ATP and biotin-labeled peptide substrate, which will be ceased when the kinase activity is inhibited. According to the principle of ELISA, a monoclonal antibody can react with phosphorylated substrate specially, so biotin-labeled substrate is binded to streptavidin-coated ELISA plate, and then binded to a HRP-labeled goat anti-mouse antibody. Finally TMB is added for a color reaction and the value of A450-A630 is read by ELISA plate reader. The OD value can reflect the inhibitory activity of the VEGFR-2, PDGFR-β, c-Kit tyrosine kinases etc. treated with the test compounds at the different concentrations. So, the assay may be used to measure the inhibition ratio of the compounds for the tyrosine kinase activity. Similar assays can be designed along the same lines for any PK using techniques well known in the art.
as §1, with “Tyrosine” for “An ELISA (Enzyme-Linked Immunosorbent Sandwich Assay) procedure may be used to detect and measure the level of protein tyrosine kinase activity. Tyrosine”, “PDGFR-β” for “PDGFR-β,”, “kinases” for “kinases etc.”
VEGF Receptor 2, PDGF Receptor-beta and c-kit kinase assay kit (include kinase, 1.25M DTT, substrate peptide, 10 mM ATP, P-Tyr-100 Mouse antibody, 4×HTScan tyrosine kinase buffer), Cell Signaling Technology CO.; HRP labeled goat anti mouse IgG, Protein Tech CO.; TMB, Pierce CO.; Streptavidin Microtitration Plate, Greiner Bio-one CO.; Infinite M200 Reader, Tecan CO.
1.2.1 Immediately transfer enzyme from −80° C. to ice. Allow enzyme to thaw on ice then at 4° C. and centrifugate transiently to the bottom of centrifuge tube, then lay back on ice quickly
1.2.2 Add 10 μl of DTT (1.25 M) to 2.5 ml of 4×HTScan tyrosine kinase buffer (240 mM HEPES pH 7.5, 20 mM MgCl2, 20 mM MnCl2, 12 μM Na3VO4). Transfer 0.6 ml of DTT/Kinase buffer to each enzyme tube to make 4× reaction Cocktail. Incubate 12.5 μl of the 4× reaction cocktail with 12.5 μl/well prediluted compound of interest for 5 minutes at room temperature, and set blank control, free-enzyme control, negative control and positive control. 1.2.3 Add 10 μl 10 mM ATP to 1.25 ml 6 μM substrate peptide. Dilute the mixture with dH20 to 2.5 ml to make 2×ATP/substrate cocktail. Add 25 μl of 2×ATP/substrate cocktail to 25 μl/well preincubated reaction cocktail/compound. Incubate reaction plate at room temperature for 30 minutes. 1.2.4 Add 50 μl/well stop Buffer (50 mM EDTA, pH 8) to stop the reaction. Transfer 25 μl of each reaction and 75 μl dH2O/well to a 96-well streptavidin coated plate and incubate at room temperature for 60 minutes. Wash three times with 200 μl/well PBS/T(1×PBS, 0.05% Tween-20). 1.2.5 Dilute primary antibody, Phospho-Tyrosine mAb (P-Tyr-100), 1:500 in PBS/T with 1% BSA. Add 100 μl/well primary antibody. Incubate at room temperature for 60 minutes. Wash three times with 200 μl/well PBS/T(1×PBS, 0.05% Tween-20). 1.2.6 Prepare appropriate dilution of HRP labeled secondary antibody, 1:500 in PBS/T with 1% BSA. Add 100 μl/well secondary antibody solution. Incubate at room temperature for 30 minutes. […]
With `CCN(CC)CCNC(=O)c1c(C)[nH]c2c1CCC/C2=C1/C(=O)Nc2ccc(F)cc21` [I-2, N-(2-(diethylamino)ethyl)-2-methyl-7-[1,2-dihydro-5-fluoro-2-oxo-3H-indol-(Z)-3-ylidene]-4,5,6,7-tetrahydro-1H-indole-3-carboxamide], the inhibition at 0.1 µM amounted to 46%.

Regarding `CCN(CC)CCNC(=O)c1c(C)[nH]c2c1CCC/C2=C1/C(=O)Nc2ccc(Cl)cc21` [I-3, N-(2-(diethylamino)ethyl)-2-methyl-7-[1,2-dihydro-5-chloro-2-oxo-3H-indol-(Z)-3-ylidene]-4,5,6,7-tetrahydro-1H-indole-3-carboxamide], the inhibition at 0.1 µM was determined as 43%.

For `CCN(CC)CCNC(=O)c1c(C)[nH]c2c1CCC/C2=C1/C(=O)Nc2ccc(C)cc21` [I-4, N-(2-(diethylamino)ethyl)-2-methyl-7-[1,2-dihydro-5-methyl-2-oxo-3H-indol-(Z)-3-ylidene]-4,5,6,7-tetrahydro-1H-indole-3-carboxamide], the inhibition at 0.1 µM came to 60%.

In the case of `CCN(CC)CCNC(=O)c1c(C)[nH]c2c1CCC/C2=C1/C(=O)Nc2ccccc21` [I-5, N-(2-(diethylamino)ethyl)-2-methyl-7-[1,2-dihydro-2-oxo-3H-indol-(Z)-3-ylidene]-4,5,6,7-tetrahydro-1H-indole-3-carboxamide], the inhibition at 0.1 µM came to 67%.

Take `Cc1[nH]c2c(c1C(=O)NCCN(C)C)CCC/C2=C1/C(=O)Nc2ccc(F)cc21` [I-6, N-(2-(dimethylamino)ethyl)-2-methyl-7-[1,2-dihydro-5-fluoro-2-oxo-3H-indol-(Z)-3-ylidene]-4,5,6,7-tetrahydro-1H-indole-3-carboxamide]: the inhibition at 0.1 µM amounted to 77%.

As to `Cc1[nH]c2c(c1C(=O)NCCCN(C)C)CCC/C2=C1/C(=O)Nc2ccc(Cl)cc21` [I-7, N-(3-(dimethylamino)propyl)-2-methyl-7-[1,2-dihydro-5-chloro-2-oxo-3H-indol-(Z)-3-ylidene]-4,5,6,7-tetrahydro-1H-indole-3-carboxamide], the inhibition at 0.1 µM is 74%.

For the molecule `Cc1[nH]c2c(c1C(=O)NCCO)CCC/C2=C1/C(=O)Nc2ccccc21` [I-8, N-(2-hydroxyethyl)-2-methyl-7-[1,2-dihydro-2-oxo-3H-indol-(Z)-3-ylidene]-4,5,6,7-tetrahydro-1H-indole-3-carboxamide], the inhibition at 0.1 µM worked out at 77%.

For the molecule `CCN(CC)CC(O)CNC(=O)c1c(C)[nH]c2c1CCC/C2=C1/C(=O)Nc2ccccc21` (stereo not drawn) [I-63, N-(3-(diethylamino)-2-hydroxypropyl)-2-methyl-7-[1,2-dihydro-2-oxo-3H-indol-(Z)-3-ylidene]-4,5,6,7-tetrahydro-1H-indole-3-carboxamide], the inhibition at 0.1 µM came to 73%.

`Cc1[nH]c2c(c1C(=O)NCC(O)CN1CCCC1)CCC/C2=C1/C(=O)Nc2ccccc21` (stereo not drawn) [I-70, N-(2-hydroxy-3-(pyrrolidin-1-yl)propyl)-2-methyl-7-[1,2-dihydro-2-oxo-3H-indol-(Z)-3-ylidene]-4,5,6,7-tetrahydro-1H-indole-3-carboxamide]: the inhibition at 0.1 µM was 76%.
